This note sets out measurements from patent US20090238810A1, “OPHTHALMIC COMPOSITION” (Menicon Co., Ltd., priority 2006, published 2009).

The subject of assay [1] is corneal epithelium of DE mice. Nature of the assay: Histopathologic study: corneal epithelial thickness in DE mice. The assay is classed as in vivo, C57BL/6J mice. The method, then:
(§1) C57BL/6J mice aged 10 to 12 weeks were used for studies. All the studies were performed in accordance with the ARVO Statement for the Use of Animals in Ophthalmic and Vision Research.
(§2) The mice were subcutaneously injected with 0.5 mg/0.2 ml of scopolamine hydrobromide four times a day for 5 days. Desiccating environmental stress was created by placing a mouse cage in a blower hood with continuous air flow blower (room temperature of […] and relative humidity of 60%±10%). Tear production of each mouse was evaluated before the treatment, and also evaluated on third and fifth days of the treatment.
(§3) During the desiccation treatment, one of the eyes of each mouse was treated with eye drops including ApoA1 (Sigma-Aldrich, Japan) or with eye drops including ApoA1 and D-pantethine (Sigma-Aldrich, Japan), while PBS was administrated to the other eye of each mouse as a control. 5 μl of the respective eye drops was administered four times a day during the desiccation treatment for five days. All the ophthalmic compositions were formulated in PBS, and the osmolarity and the pH value of the compositions were adjusted to 290 to 300 mOsm/L and pH 7.4, respectively. […] To prepare one liter of 0.01 M PBS, there are needed the followings:
Mice eyeballs were surgically excised, and fixed with neutral-buffered formalin (10%) and embedded in paraffin. Then, 5 μm thick histological sections were cut and stained with hematoxylin and eosin. […] Microphotometric measurement of the thickness was done by using OB-M, 1/100, micro, AX0001 (Olympus Optical Co. Ltd., Japan). The corneal epithelial thickness was measured to an accuracy of 10 μm.
In this EXAMPLE, there were used 6 to 8 corneas of each of the following groups of mice: (a) normal mice, (b) DE mice, (c) DE mice treated with 0.04 w/v % of ApoA1, and (d) DE mice treated with PBS.

The test system of assay [2] is corneal epithelium of DE mice. Nature of the assay: Corneal fluorescein staining in experimental mouse model of dry eye (DE mice). The format is in vivo, C57BL/6J mice. As for the experimental part:
as §1, §2, §3
Corneal fluorescein staining was evaluated 10 minutes after topical application of 1 μL of 1% sodium fluorescein (Sigma-Aldrich, Japan) to mouse eyes, which were treated as described above, and examined under a light microscope (Leica Microsystems Inc., Deerfield, USA) and photographed with a digital camera (CAMEDIA, Olympus Optical Co. Ltd., Japan) fitted to the microscope.
In TABLES 2 and 3 below, X represents a ratio of an area which was subjected to a punctuate staining to a total area of a cornea.

Setting [3] is: DE mice, various concentrations.

apolipoprotein A-1 [ApoA1]: in assay [1] (0.01, 0.04, 0.1 w/v % ApoA1 tested, DE mice (FIG. 15)), the “most effective concentration of ApoA1, corneal epithelial thickness” value was determined as 0.1 w/v %. Besides, the “thinning of the cell layers accompanied by detachment of the corneal epithelium” value in assay [1] (DE mice treated with 0.04 w/v % ApoA1 vs PBS (FIGS. 12 and 13)) is listed as “significantly greater in the PBS-treated eyes compared with the ApoA1-treated eyes”. For the same substance, the “conclusion of corneal epithelial thickness experiments: restriction of thinning of corneal epithelium” value in assay [1] (setting [3]) is reported as “extremely effective”. Also, the “most effective concentration of ApoA1, corneal staining scores” value in assay [2] (0.01, 0.04 or 0.1 w/v % ApoA1 tested, DE mice (FIG. 10)) worked out at 0.1 w/v %. In assay [2] (setting [3]), the “conclusion of corneal fluorescein staining experiments: effect on dry eye syndrome” value was “significantly effective”. Further, the “average corneal staining score, less than that of the PBS group” value in assay [2] (eye drops 0.04 w/v % ApoA1, 5 μl four times a day for five days, six DE mice, other eye PBS (FIG. 8)) was “about 25%”. In assay [2] (eye drops 0.04 w/v % ApoA1, DE mice), the “effect on corneal epithelium erosion due to desiccation (grading scores and quantitative measurement)” value was “protective effects”. Also, in assay [2] (eye drops 0.04 w/v % ApoA1, DE mice, data not shown), the “quantitative measurement of fluorescein stained area (NIH ImageJ), average score less than that of the PBS group” value is on record as 20%.
